# Data from ChEMBL document CHEMBL1146957, “An efficient, asymmetric solid-phase synthesis of benzothiadiazine-substituted tetramic acids: potent inhibitors of the hepatitis C virus RNA-dependent RNA polymerase” (Bioorg Med Chem Lett, 2006).
# What was measured:
# [1] = biological target: RNA-directed RNA polymerase (Hepacivirus hominis, UniProt O39930); test: Inhibition of HCV NS5B RNA dependent RNA polymerase
# Hepatitis C virus = test: Inhibition of HCV replication; format: functional, organism-based, Hepacivirus hominis
# Chain of RNA-directed RNA polymerase (O39930 whole entry): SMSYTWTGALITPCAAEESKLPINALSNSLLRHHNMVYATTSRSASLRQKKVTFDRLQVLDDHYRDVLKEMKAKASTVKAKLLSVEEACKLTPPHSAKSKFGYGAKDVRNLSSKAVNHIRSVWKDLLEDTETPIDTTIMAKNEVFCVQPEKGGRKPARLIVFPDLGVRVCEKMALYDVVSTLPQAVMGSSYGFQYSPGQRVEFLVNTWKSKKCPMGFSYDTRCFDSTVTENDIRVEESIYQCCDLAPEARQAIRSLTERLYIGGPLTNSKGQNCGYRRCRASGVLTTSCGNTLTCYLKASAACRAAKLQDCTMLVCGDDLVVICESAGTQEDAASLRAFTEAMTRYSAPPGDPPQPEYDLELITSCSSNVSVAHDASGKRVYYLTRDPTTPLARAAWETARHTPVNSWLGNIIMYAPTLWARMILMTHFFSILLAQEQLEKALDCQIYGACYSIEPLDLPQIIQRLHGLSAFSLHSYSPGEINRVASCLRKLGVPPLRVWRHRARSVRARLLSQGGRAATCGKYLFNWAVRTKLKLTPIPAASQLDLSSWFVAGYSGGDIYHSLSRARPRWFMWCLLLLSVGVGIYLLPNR
SMILES,IC50 [1],IC50 (Hepatitis C virus)
CC(C)CCN1C(=O)C(C2=NS(=O)(=O)c3ccccc3N2)=C(O)[C@@H]1Cc1ccccc1,3570 nM,> 60000 nM
CC(C)(C)CCN1C(=O)C(C2=NS(=O)(=O)c3ccccc3N2)=C(O)[C@@H]1C1CCCCC1,486 nM,
CC(C)(C)[C@H]1C(O)=C(C2=NS(=O)(=O)c3ccccc3N2)C(=O)N1CCC1CC1,530 nM,
CC(C)(C)CCN1C(=O)C(C2=NS(=O)(=O)c3ccccc3N2)=C(O)[C@@H]1c1ccc(F)cc1,> 748 nM,
CC(C)(C)[C@H]1C(O)=C(C2=NS(=O)(=O)c3ccccc3N2)C(=O)N1Cc1ccccn1,> 100000 nM,
O=C1C(C2=NS(=O)(=O)c3ccccc3N2)=C(O)[C@H](Cc2cccnc2)N1Cc1ccc(F)cc1,2470 nM,

# Now those with a lower IC50 [1], led by results:
IC50 [1],IC50 (Hepatitis C virus),SMILES
22 nM,13000 nM,CC(C)(C)[C@H]1C(O)=C(C2=NS(=O)(=O)c3ccccc3N2)C(=O)N1Cc1ccccc1
147 nM,159000 nM,CC(C)CCN1C(=O)C(C2=NS(=O)(=O)c3ccccc3N2)=C(O)[C@@H]1C(C)C
18 nM,8000 nM,CC(C)CCN1C(=O)C(C2=NS(=O)(=O)c3ccccc3N2)=C(O)[C@@H]1C(C)(C)C
1.7 nM,,CC(C)(C)CCN1C(=O)C(C2=NS(=O)(=O)c3ccccc3N2)=C(O)[C@@H]1C(C)(C)C
88 nM,37000 nM,CCC(C)[C@H]1C(O)=C(C2=NS(=O)(=O)c3ccccc3N2)C(=O)N1Cc1ccccc1 (some centres undefined)
200 nM,269000 nM,CC(C)CCn1c(=O)c(C2=NS(=O)(=O)c3ccccc3N2)c(O)c2ccccc21
59 nM,,CC(C)(C)[C@H]1C(O)=C(C2=NS(=O)(=O)c3ccccc3N2)C(=O)N1Cc1ccc(F)cc1
